Measurements as given in the Deep4Chem optical property database.

assay: solvent given as SMILES; details: in C1CCCCC1

emission maximum	SMILES
650 nm	CC1=[N+]2C(=C(c3cccs3)c3ccc(C)n3[B-]2(F)F)C=C1c1cc2n(c1)[B-](F)(F)[N+]1=CC=CC1=C2c1c(C)cc(C)cc1C
400 nm	Cc1ccc(/C=N/c2cc(C(C)C)c(O)cc2C)cc1
380 nm	Clc1ccc(/C=C/c2nc3ccccc3o2)cc1
391 nm	CN(C)c1c2ccccc2cc2ccccc12
570 nm	COc1ccc2c(c1)C(=O)c1cc(OC)cc(OC)c1-2

SMILES	emission maximum
c1cc2ccc3cc4cccc5ccc6cc(c1)c2c3c6c54	436 nm

same assay, conditions: in C1CCOC1

SMILES	emission maximum
CCC1(CC)c2cc(/C=C/c3cc(C#N)c(/C=C/c4ccc5c(c4)C(CC)(CC)c4cc(N6c7ccccc7Sc7ccccc76)ccc4-5)cc3C#N)ccc2-c2ccc(N3c4ccccc4Sc4ccccc43)cc21	514 nm
CC1(C)CC(/C=C/c2cn(-c3ccccc3)nc2-c2ccccc2)=CC(=C(C#N)C#N)C1	556 nm
OC1(c2ccc(-c3cccs3)s2)CCC1	470 nm
Cc1ccc(/C=N/c2cc(C(C)C)c(O)cc2C)cc1	410 nm
CN(C)c1ccc(C2=Cc3cc(Cl)nc[n+]3[B-](F)(F)O2)cc1	532 nm
F[B-]1(F)n2c(-c3ccccc3)cc(-c3ccccc3)c2C(c2ccccc2)=C2C(c3ccccc3)=CC(c3ccccc3)=[N+]21	597 nm
F[B-]1(F)n2c(c3ccccc3c2-c2ccccc2)C=C2c3ccccc3C(c3ccccc3)=[N+]21	662 nm
CN(C)c1c2ccccc2cc2ccccc12	392 nm

same assay, conditions: in C1COCCO1

emission maximum	SMILES
408 nm	Cc1ccc(/C=N/c2cc(C(C)C)c(O)cc2C)cc1
521 nm	CC(=O)Nc1ccc(C2=C/C(=C\c3ccc(C#N)cc3)C(=O)O2)cc1
357 nm	O=S(=O)([O-])c1ccc(O)c2ccccc12
392 nm	CN(C)c1c2ccccc2cc2ccccc12

SMILES	emission maximum
CC1(C)CC(/C=C/c2cn(-c3ccccc3)nc2-c2ccccc2)=CC(=C(C#N)C#N)C1	548 nm

same assay, conditions: in CC#N

emission maximum	SMILES
635 nm	C=CCNc1ccc2ccc3oc4cc(=[N+]5CCCC5)ccc-4nc3c2c1
415 nm	Cc1ccc(/C=N/c2cc(C(C)C)c(O)cc2C)cc1
551 nm	CCN(CC)c1ccc(/C=N/c2cc3nc4ccccc4nc3cc2/N=C/c2ccc(N(CC)CC)cc2O)c(O)c1
358 nm	O=S(=O)([O-])c1ccc(O)c2ccccc12
673 nm	F[B-]1(F)n2c(-c3ccccc3)cc(-c3ccccc3)c2N=C2C(c3ccccc3)=CC(c3ccccc3)=[N+]21
390 nm	CN(C)c1c2ccccc2cc2ccccc12
628 nm	COc1ccc2c(c1)C(=O)c1cc(OC)cc(OC)c1-2
414 nm	c1ccc2c(c1)nc1ccccn12
599 nm	COC(=O)c1cc(=O)n(C)c2cc(-c3ccc(N(C)C)cc3)sc12

SMILES	emission maximum
CCC1(CC)c2cc(/C=C/c3cc(C#N)c(/C=C/c4ccc5c(c4)C(CC)(CC)c4cc(N6c7ccccc7Sc7ccccc76)ccc4-5)cc3C#N)ccc2-c2ccc(N3c4ccccc4Sc4ccccc43)cc21	610 nm
c1cc2ccc3cc4cccc5ccc6cc(c1)c2c3c6c54	436 nm
OC1(c2ccc(-c3cccs3)s2)CCC1	460 nm
CN(C)c1ccc(C2=Cc3cc(Cl)nc[n+]3[B-](F)(F)O2)cc1	565 nm
Cc1cc(C(F)(F)F)nc2c1ccc1nc(-c3ccc(F)c(F)c3)cn12	460 nm
COc1ccc(-c2nc(C(C)=O)c(C)o2)cc1	347 nm
C(=C\c1cccc2ccccc12)/c1ccc(-c2nnc(-c3ccc(-c4cc5ccccc5s4)cc3)o2)cc1	441 nm

same assay, conditions: in CC(C)(C)O

emission maximum	SMILES
412 nm	Cc1ccc(/C=N/c2cc(C(C)C)c(O)cc2C)cc1

same assay, conditions: in CC(C)=O

SMILES	emission maximum
C(=C\c1cccc2ccccc12)/c1ccc(-c2nnc(-c3ccc(-c4cc5ccccc5s4)cc3)o2)cc1	437 nm

same assay, conditions: in CC(C)O

emission maximum	SMILES
416 nm	Cc1ccc(/C=N/c2cc(C(C)C)c(O)cc2C)cc1
360 nm	O=S(=O)([O-])c1ccc(O)c2ccccc12

same assay, conditions: in CCCCCC

SMILES	emission maximum
CCC1(CC)c2cc(/C=C/c3cc(C#N)c(/C=C/c4ccc5c(c4)C(CC)(CC)c4cc(N6c7ccccc7Sc7ccccc76)ccc4-5)cc3C#N)ccc2-c2ccc(N3c4ccccc4Sc4ccccc43)cc21	518 nm
OC1(c2ccc(-c3cccs3)s2)CCC1	465 nm
Cc1ccc(/C=N/c2cc(C(C)C)c(O)cc2C)cc1	402 nm
CC1=C2C=CC=[N+]2[B-](F)(F)n2cccc21	506 nm
CN(C)c1ccc(C2=Cc3cc(Cl)nc[n+]3[B-](F)(F)O2)cc1	456 nm
Cc1cc(C(F)(F)F)nc2c1ccc1nc(-c3ccc(F)c(F)c3)cn12	433 nm

same assay, conditions: in CCCCCCCC

SMILES	emission maximum
C(=C\c1cccc2ccccc12)/c1ccc(-c2nnc(-c3ccc(-c4cc5ccccc5s4)cc3)o2)cc1	426 nm

same assay, conditions: in CCCCCCCCCCO

SMILES	emission maximum
C(=C\c1cccc2ccccc12)/c1ccc(-c2nnc(-c3ccc(-c4cc5ccccc5s4)cc3)o2)cc1	437 nm

same assay, conditions: in CCCCCCCCO

SMILES	emission maximum
C(=C\c1cccc2ccccc12)/c1ccc(-c2nnc(-c3ccc(-c4cc5ccccc5s4)cc3)o2)cc1	436 nm

same assay, conditions: in CCCCCO

SMILES	emission maximum
C(=C\c1cccc2ccccc12)/c1ccc(-c2nnc(-c3ccc(-c4cc5ccccc5s4)cc3)o2)cc1	438 nm

same assay, conditions: in CCCCO

emission maximum	SMILES
417 nm	Cc1ccc(/C=N/c2cc(C(C)C)c(O)cc2C)cc1
361 nm	O=S(=O)([O-])c1ccc(O)c2ccccc12

same assay, conditions: in CCCCOC(C)=O

SMILES	emission maximum
Cc1cc(C(F)(F)F)nc2c1ccc1nc(-c3ccc(F)c(F)c3)cn12	453 nm

same assay, conditions: in CCCO

SMILES	emission maximum
C(=C\c1cccc2ccccc12)/c1ccc(-c2nnc(-c3ccc(-c4cc5ccccc5s4)cc3)o2)cc1	441 nm

same assay, conditions: in CCO

emission maximum	SMILES
632 nm	C=CCNc1ccc2ccc3oc4cc(=[N+]5CCCC5)ccc-4nc3c2c1
417 nm	Cc1ccc(/C=N/c2cc(C(C)C)c(O)cc2C)cc1
360 nm	O=S(=O)([O-])c1ccc(O)c2ccccc12
410 nm	COc1ccc2cc(-c3ccc(S(C)(=O)=O)cc3)oc(=O)c2c1
389 nm	CN(C)c1c2ccccc2cc2ccccc12

SMILES	emission maximum
CC1(C)CC(/C=C/c2cn(-c3ccccc3)nc2-c2ccccc2)=CC(=C(C#N)C#N)C1	564 nm
OC1(c2ccc(-c3cccs3)s2)CCC1	415 nm
COc1ccc(-c2nc(C(C)=O)c(C)o2)cc1	354 nm

same assay, conditions: in CCOC(C)=O

emission maximum	SMILES
670 nm	CC1=[N+]2C(=C(c3cccs3)c3ccc(C)n3[B-]2(F)F)C=C1c1cc2n(c1)[B-](F)(F)[N+]1=CC=CC1=C2c1c(C)cc(C)cc1C
409 nm	Cc1ccc(/C=N/c2cc(C(C)C)c(O)cc2C)cc1
354 nm	O=S(=O)([O-])c1ccc(O)c2ccccc12
404 nm	COc1ccc2cc(-c3ccc(S(C)(=O)=O)cc3)oc(=O)c2c1

SMILES	emission maximum
CC1(C)CC(/C=C/c2cn(-c3ccccc3)nc2-c2ccccc2)=CC(=C(C#N)C#N)C1	564 nm
Cc1cc(C(F)(F)F)nc2c1ccc1nc(-c3ccc(F)c(F)c3)cn12	454 nm
COc1ccc(-c2nc(C(C)=O)c(C)o2)cc1	347 nm

same assay, conditions: in CCOCC

SMILES	emission maximum
COc1ccc(-c2nc(C(C)=O)c(C)o2)cc1	345 nm

same assay, conditions: in CN(C)C=O

emission maximum	SMILES
414 nm	Cc1ccc(/C=N/c2cc(C(C)C)c(O)cc2C)cc1
599 nm	CCN(CC)c1ccc(/C=N/c2cc3nc4ccccc4nc3cc2/N=C/c2ccc(N(CC)CC)cc2O)c(O)c1
366 nm	O=S(=O)([O-])c1ccc(O)c2ccccc12
410 nm	COc1ccc2cc(-c3ccc(S(C)(=O)=O)cc3)oc(=O)c2c1
392 nm	CN(C)c1c2ccccc2cc2ccccc12

SMILES	emission maximum
CC1(C)CC(/C=C/c2cn(-c3ccccc3)nc2-c2ccccc2)=CC(=C(C#N)C#N)C1	565 nm
C(=C\c1cccc2ccccc12)/c1ccc(-c2nnc(-c3ccc(-c4cc5ccccc5s4)cc3)o2)cc1	447 nm
